Measured values published in patent US20050019850A1, “Method for identifying fungicidally active compounds based on guanylate kinases” (priority 2003, published 2005).

Biological target: U. maydis guanylate kinase (Mycosarcoma maydis, UniProt A0A0D1DZ04)
Test: Determination of the KM value of guanylate kinase for its substrates (Lineweaver/Burk)
Assay type: biochemical, Ustilago maydis
Conditions: read-out: KM value; FIG. 3, Lineweaver/Burk representation; substrate of guanylate kinase
Text: Lineweaver/Burk representation of the data: 1/Vo=1/Vmax+1/S×(KM/Vmax), wherein Vo is the initial reaction rate, Vmax the maximum conversion rate possible and S the substrate concentration. Vmax and KM can then be read as the intercepts on the horizontal and the vertical axes 1/Vmax and 1/KM, respectively.
Here, pyruvate kinase converts phosphoenolpyruvate into pyruvate, which is then utilised by lactate dehydrogenase for oxidizing NADH to give NAD. The NAD concentration, which increases owing to the coupled reaction, or the NADH concentration, which decreases owing to the coupled reaction, can be measured photospectrometrically by absorption or fluorescence measurement (absorption drops at 340 nm, fluorescence drops at 340 nm (emission at 465 nm)).

U. maydis guanylate kinase, sequence (A0A0D1DZ04 118-213, added parts left off): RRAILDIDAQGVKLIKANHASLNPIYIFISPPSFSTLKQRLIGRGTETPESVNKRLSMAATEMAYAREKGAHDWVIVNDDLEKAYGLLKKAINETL

## Nc1nc2c(ncn2[C@@H]2O[C@H](COP(=O)(O)O)[C@@H](O)[C@H]2O)c(=O)[nH]1 [GMP]
  Km: 40 µM

## Nc1ncnc2c1ncn2[C@@H]1O[C@H](COP(=O)(O)OP(=O)(O)OP(=O)(O)O)[C@@H](O)[C@H]1O [ATP]
  Km: 100 µM
